According to patent publication US11304946B2, “2-hetarylpyrimidine-4-carboxamides as aryl hydrocarbon receptor antagonists” (Bayer Aktiengesellschaft, priority 2017, dated 2022):

These compounds were tested against T1, Human AhR (Homo sapiens, UniProt P35869) (assay: Transactivation assay in human cell line (in vitro assay 1: antagonism)). Settings: U87 glioblastoma cells, AHR inducible (DRE) firefly luciferase reporter, 150 μM kynurenic acid, 20 hours.
T1 construct: host or cells: U87 glioblastoma cells, stably transfected with DRE-driven firefly luciferase and constitutive renilla reporter constructs
T1 sequence (P35869 11-848): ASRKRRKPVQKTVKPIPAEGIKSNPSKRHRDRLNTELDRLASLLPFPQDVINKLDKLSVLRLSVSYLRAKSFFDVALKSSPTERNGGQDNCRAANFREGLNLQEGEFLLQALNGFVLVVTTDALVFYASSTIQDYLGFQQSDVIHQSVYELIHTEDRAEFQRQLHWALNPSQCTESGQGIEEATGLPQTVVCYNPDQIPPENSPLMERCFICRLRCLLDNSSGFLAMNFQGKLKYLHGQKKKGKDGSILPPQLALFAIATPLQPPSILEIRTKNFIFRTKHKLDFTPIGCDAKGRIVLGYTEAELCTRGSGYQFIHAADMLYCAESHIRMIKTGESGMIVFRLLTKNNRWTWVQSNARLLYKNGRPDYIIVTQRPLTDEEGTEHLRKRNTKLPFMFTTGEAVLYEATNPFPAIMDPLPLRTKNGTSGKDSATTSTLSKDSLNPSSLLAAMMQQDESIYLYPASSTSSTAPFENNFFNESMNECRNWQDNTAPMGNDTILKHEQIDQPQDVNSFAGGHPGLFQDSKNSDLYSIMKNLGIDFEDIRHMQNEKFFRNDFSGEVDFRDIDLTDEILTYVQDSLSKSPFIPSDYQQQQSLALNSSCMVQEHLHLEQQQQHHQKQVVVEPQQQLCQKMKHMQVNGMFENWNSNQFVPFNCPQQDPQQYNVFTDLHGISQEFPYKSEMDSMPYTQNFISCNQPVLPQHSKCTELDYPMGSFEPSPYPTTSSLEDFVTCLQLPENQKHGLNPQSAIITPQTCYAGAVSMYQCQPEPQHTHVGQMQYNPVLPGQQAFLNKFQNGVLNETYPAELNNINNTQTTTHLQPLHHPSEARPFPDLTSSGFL
Assay type: cell-based
Method: Transactivation Assay in Human Cell Line (In Vitro Assay 1)
Transactivation assay was carried out in U87 glioblastoma cells (ATCC) endogenously expressing AHR. In addition the cells were stably transfected with an AHR inducible firefly luciferase reporter gene construct that carried AHR-binding sites (DRE) in its promoter and a renilla reporter gene construct with constitutively active promoter. Kynurenic acid is an endogenous AHR activating ligand and was used to prestimulate test cells prior to testing the antagonistic properties of compounds.
In Vitro Assay 1: Antagonism in Human Cell Line
Firefly luciferase and Renilla activity was determined by the DualGlo Luciferase Assay System (Promega, #2920). Renilla activity was used to assess toxic effects of compounds.

| IC50 | SMILES |
| --- | --- |
| 0.00158 µM | Cn1cc(-c2nc(C(=O)N[C@H]3CCC[C@H]3O)cc(-c3ccc(OC(F)(F)F)cc3)n2)cn1 (relative stereo) [Example 91, N-[(cis)-2-hydroxycyclopentyl]-2-(1-methyl-1H-pyrazol-4-yl)-6-[4-(trifluoromethoxy)phenyl]pyrimidine-4-carboxamide] |
| 0.0206 µM | Cn1cc(-c2nc(C(=O)N[C@@H]3CS(=O)(=O)C[C@@H]3O)cc(-c3ccc(OC(F)(F)F)cc3)n2)cn1 (relative stereo) [Example 98, N-[(cis)-4-hydroxy-1,1-dioxo-1lambda^6-thiolan-3-yl]-2-(1-methyl-1H-pyrazol-4-yl)-6-[4-(trifluoromethoxy)phenyl]pyrimidine-4-carboxamide] |
| 0.00457 µM | Cn1cc(-c2nc(C(=O)N[C@H]3CC[C@H]3O)cc(-c3ccc(OC(F)(F)F)cc3)n2)cn1 (relative stereo) [Example 107, N-[(cis)-2-hydroxycyclobutyl]-2-(1-methyl-1H-pyrazol-4-yl)-6-[4-(trifluoromethoxy)phenyl]pyrimidine-4-carboxamide] |
| 0.307 µM | COc1ccc(-c2nc(C(=O)NCC(C)(C)O)cc(-c3ccc(OC(F)(F)F)cc3)n2)cn1 [Example 14, N-(2-hydroxy-2-methylpropyl)-2-(6-methoxypyridin-3-yl)-6-[4-(trifluoromethoxy)phenyl]pyrimidine-4-carboxamide] |
| > 20 µM | CC(C)(O)CNC(=O)c1cc(-c2ccc(OC(F)(F)F)cc2)nc(-c2cnc(C#N)nc2)n1 [Example 23, 2′-cyano-N-(2-hydroxy-2-methylpropyl)-6-[4-(trifluoromethoxy)phenyl][2,5′-bipyrimidine]-4-carboxamide] |
| 3.96 µM | CC(C)(O)CNC(=O)c1cc(-c2ccc(OC(F)(F)F)cc2)nc(-c2cnn(C3CC3)c2)n1 [Example 26, 2-(1-cyclopropyl-1H-pyrazol-4-yl)-N-(2-hydroxy-2-methylpropyl)-6-[4-(trifluoromethoxy)phenyl]pyrimidine-4-carboxamide] |
| 0.438 µM | COc1ccc(-c2nc(C(=O)N[C@@H](C)CO)cc(-c3ccc(OC(F)(F)F)cc3)n2)cn1 [Example 27, N-[(2S)-1-hydroxypropan-2-yl]-2-(6-methoxypyridin-3-yl)-6-[4-(trifluoromethoxy)phenyl]pyrimidine-4-carboxamide] |
| 0.0152 µM | Cc1cscc1-c1nc(C(=O)N[C@@H](C)CO)cc(-c2ccc(OC(F)(F)F)cc2)n1 [Example 29, N-[(2S)-1-hydroxypropan-2-yl]-2-(4-methylthiophen-3-yl)-6-[4-(trifluoromethoxy)phenyl]pyrimidine-4-carboxamide] |
| 0.00638 µM | C[C@@H](CO)NC(=O)c1cc(-c2ccc(OC(F)(F)F)cc2)nc(-c2cccs2)n1 [Example 30, N-[(2S)-1-hydroxypropan-2-yl]-2-(thiophen-2-yl)-6-[4-(trifluoromethoxy)phenyl]pyrimidine-4-carboxamide] |
| 0.0145 µM | C[C@@H](CO)NC(=O)c1cc(-c2ccc(OC(F)(F)F)cc2)nc(-c2ccsc2)n1 [Example 31, N-[(2S)-1-hydroxypropan-2-yl]-2-(thiophen-3-yl)-6-[4-(trifluoromethoxy)phenyl]pyrimidine-4-carboxamide] |
| 0.00925 µM | Cc1ccsc1-c1nc(C(=O)N[C@@H](C)CO)cc(-c2ccc(OC(F)(F)F)cc2)n1 [Example 33, N-[(2S)-1-hydroxypropan-2-yl]-2-(3-methylthiophen-2-yl)-6-[4-(trifluoromethoxy)phenyl]pyrimidine-4-carboxamide] |
| 4.51 µM | C[C@@H](CO)NC(=O)c1cc(-c2ccc(OC(F)(F)F)cc2)nc(-c2ccc(C#N)nc2)n1 [Example 38, 2-(6-cyanopyridin-3-yl)-N-[(2S)-1-hydroxypropan-2-yl]-6-[4-(trifluoromethoxy)phenyl]pyrimidine-4-carboxamide] |
| 0.12 µM | Cc1ncc(-c2nc(C(=O)N[C@@H](C)CO)cc(-c3ccc(OC(F)(F)F)cc3)n2)cn1 [Example 42, N-[(2S)-1-hydroxypropan-2-yl]-2′-methyl-6-[4-(trifluoromethoxy)phenyl][2,5′-bipyrimidine]-4-carboxamide] |
| 0.972 µM | C[C@@H](CO)NC(=O)c1cc(-c2ccc(OC(F)(F)F)cc2)nc(-c2cnn(C3CC3)c2)n1 [Example 44, 2-(1-cyclopropyl-1H-pyrazol-4-yl)-N-[(2S)-1-hydroxypropan-2-yl]-6-[4-(trifluoromethoxy)phenyl]pyrimidine-4-carboxamide] |
| 0.0572 µM | Cc1cn[nH]c1-c1nc(C(=O)N[C@@H](C)CO)cc(-c2ccc(OC(F)(F)F)cc2)n1 [Example 45, N-[(2S)-1-hydroxypropan-2-yl]-2-(4-methyl-1H-pyrazol-5-yl)-6-[4-(trifluoromethoxy)phenyl]pyrimidine-4-carboxamide] |
| 0.431 µM | COc1ccc(-c2nc(C(=O)NCC(C)(C)O)cc(-c3ccc(Cl)cc3)n2)cn1 [Example 46, 6-(4-chlorophenyl)-N-(2-hydroxy-2-methylpropyl)-2-(6-methoxypyridin-3-yl)pyrimidine-4-carboxamide] |
| 0.00591 µM | C[C@@H](CO)NC(=O)c1cc(-c2ccc(Cl)cc2)nc(-c2cccs2)n1 [Example 50, 6-(4-chlorophenyl)-N-[(2S)-1-hydroxypropan-2-yl]-2-(thiophen-2-yl)pyrimidine-4-carboxamide] |
| 0.965 µM | Cc1noc(C)c1-c1nc(C(=O)NCC(C)(C)O)cc(-c2ccc(Cl)cc2)n1 [Example 56, 6-(4-chlorophenyl)-2-(3,5-dimethyl-1,2-oxazol-4-yl)-N-(2-hydroxy-2-methylpropyl)pyrimidine-4-carboxamide] |
| 0.328 µM | CC(C)(O)CNC(=O)c1cc(-c2ccc(Cl)cc2)nc(-c2cc[nH]n2)n1 [Example 58, 6-(4-chlorophenyl)-N-(2-hydroxy-2-methylpropyl)-2-(1H-pyrazol-3-yl)pyrimidine-4-carboxamide] |
| 6.87 µM | CC(C)(O)CNC(=O)c1cc(-c2ccc(Cl)cc2)nc(-c2ccc(C#N)nc2)n1 [Example 59, 6-(4-chlorophenyl)-2-(6-cyanopyridin-3-yl)-N-(2-hydroxy-2-methylpropyl)pyrimidine-4-carboxamide] |
| 0.355 µM | Cc1n[nH]cc1-c1nc(C(=O)NCC(C)(C)O)cc(-c2ccc(Cl)cc2)n1 [Example 65, 6-(4-chlorophenyl)-N-(2-hydroxy-2-methylpropyl)-2-(3-methyl-1H-pyrazol-4-yl)pyrimidine-4-carboxamide] |
| 0.0501 µM | Cc1nn(C)cc1-c1nc(C(=O)NCC(C)(C)O)cc(-c2ccc(Cl)cc2)n1 [Example 66, 6-(4-chlorophenyl)-2-(1,3-dimethyl-1H-pyrazol-4-yl)-N-(2-hydroxy-2-methylpropyl)pyrimidine-4-carboxamide] |
| 12.6 µM | CC(C)(O)CNC(=O)c1cc(-c2ccc(Cl)cc2)nc(-c2cnc(Cl)nc2)n1 [Example 67, 2′-chloro-6-(4-chlorophenyl)-N-(2-hydroxy-2-methylpropyl)[2,5′-bipyrimidine]-4-carboxamide] |
| 0.342 µM | COc1ccc(-c2nc(C(=O)N[C@@H](C)CO)cc(-c3ccc(Cl)cc3)n2)cn1 [Example 69, 6-(4-chlorophenyl)-N-[(2S)-1-hydroxypropan-2-yl]-2-(6-methoxypyridin-3-yl)pyrimidine-4-carboxamide] |
| 1.18 µM | CC(C)Cn1cc(-c2nc(C(=O)N[C@@H](C)CO)cc(-c3ccc(Cl)cc3)n2)cn1 [Example 77, 6-(4-chlorophenyl)-N-[(2S)-1-hydroxypropan-2-yl]-2-[1-(2-methylpropyl)-1H-pyrazol-4-yl]pyrimidine-4-carboxamide] |
